Patent US20100048714A1, “Methods and Compositions Related to Inhibition of Ceramide Synthesis” (University of Utah Research Foundation, priority 2006, published 2010)

Assays:
Sprague-Dawley rats [1] = test: Glucose tolerance test (glucose 1 g/kg IP) in dexamethasone-treated rats; assay type: in vivo, rat; conditions: dexamethasone vs vehicle
Protocol: (§1) (A) Sprague-Dawley rats were treated with myriocin (300 μg/Kg, IP, solid bars) or saline (open bars) for two weeks prior to giving administering dexamethasone (40 μg/Kg, IP) or vehicle (5% ethanol) every 12 hours for 36 hours. Animals were euthanized by CO2 inhalation, livers were removed, and ceramide levels were assessed as described in SOM-Methods. Shown are mean ceramide levels+/−S.E.M, n=6 per group. The asterisk denotes that the sample was statistically different from vehicle-treated controls, p<0.05, student's t-test. (B) Livers were obtained as in A, above, and protein and mRNA were extracted as described in SOM-Methods. Levels of transcripts (solid bars) encoding serine palimitoyl transferase isoforms 1 and 2 (SPT1 and SPT2), dihydroceramide synthases (DCS) TL1, UOG, and TRH3, glucosylceramide synthase (GCS), and acid ceramidase (AC) transcripts were obtained by reverse-transcriptase polymerase chain reaction, normalized to β-actin. SPT2 protein levels (white bars) were detected by immunoblotting with an antibody from Cayman Chemicals (Ann Arbor, Mich.) and quantified on a Kodak Image Station 2000R (Rochester, N.Y.). Data represent the fold-change in transcript or protein in dexamethasone-treated animals relative to vehicle controls. […] (C and D) Rats were challenged with glucose (1 g/kg) given intraperitoneally (IP) following treatment with dexamethasone (squares), ethanol carrier (triangles), myriocin (open shapes), or saline (solid shapes) as in A, above. Tail vein blood (3 μl) was sampled for glucose (C)(using the Glucometer Elite from Bayer Corp., Tarrytown, N.Y.) or insulin (D) (using an Elisa kit from Linco Diagnostics, Springfield, Mo.). […] (E-G) Hyperinsulinemic euglycemic clamps were performed on animals (n=4 per group) treated as in A, above, as described in SOM-Methods. Data from animals receiving myriocin are depicted in solid bars. (E) The glucose infusion rate required to maintain normal glycemia during insulin infusion ([…]) was calculated as the average infusion rate during the 60 minute steady state. (F) Hepatic glucose output was estimated by the disappearance of [^14C] glucose from a bolus dose given during the steady state minus the glucose infusion rate. (G) Disappearance of a bolus dose of [^3H] 2-deoxyglucose from the bloodstream was used to estimate the rate of whole body glucose uptake.
Tail vein blood (3 μl) was sampled for glucose determination (Hitachi 911 clinical chemistry analyzer, Roche, Indianapolis, Ind. or Glucometer Elite, Bayer Corp., Tarrytown, N.Y.)-30 minutes, immediately before and 15, 30, 45, 60, 90, and 120 min after glucose administration. Additionally, serum was collected and analyzed for insulin by Elisa (Linco Diagnostics, Springfield, Mo.).

Sprague dawley rats [2] = test: Hyperinsulinemic euglycemic clamps of dexamethasone treated rats; assay type: in vivo, rat; conditions: plasma, 60 minute steady state; Dexamethasone-treated (Saline or Myriocin); mean ± standard error, n=4
Sprague dawley rats [3] = test: as above; assay type: in vivo, rat; conditions: plasma, Dexamethasone-treated (Saline or Myriocin), mean ± standard error, n=4
Protocol: as §1
To definitively evaluate effects on insulin sensitivity, as well as to distinguish whether the treatment protocols differentially affected glucose uptake in skeletal muscle or hepatic output by the liver, hyperinsulinemic-euglycemic clamps with D-[U-^14C] glucose and 2-deoxy-D-[2,6-^3H] glucose tracers were performed.
Clamps were performed in conscious unrestrained animals using swivels and tethers (Instech, Plymouth Meeting, Pa.) to allow uninterrupted movement of the animal without disruption of infusion lines. Hyperinsulinemia was initiated by intravenous infusion of insulin (10 mU/kg/min at a flow rate of 4 μL/min). Blood was sampled from arterial lines in 7 minute intervals and analyzed with a Beckman Glucose analyzer II (Beckman Coulter, Fullerton, Calif.). Euglycemia was maintained by variable infusion of 20% dextrose. Steady state was achieved approximately 90 minutes after initiating hyperinsulinemia and maintained for 30 minutes. Glucose infusion rates were calculated as the average glucose infusion rate during the 30 minute steady state. Additional blood samples were taken before initiating hyperinsulinemia and at the end of the clamp for analysis of insulin and free fatty acids.

DES 1 = target: T1, DES 1 (Homo sapiens, UniProt O15121); conditions: Zheng et al. 2006; Szkudelski et al. 2006; cited from earlier work
T1 sequence (O15121 1-323): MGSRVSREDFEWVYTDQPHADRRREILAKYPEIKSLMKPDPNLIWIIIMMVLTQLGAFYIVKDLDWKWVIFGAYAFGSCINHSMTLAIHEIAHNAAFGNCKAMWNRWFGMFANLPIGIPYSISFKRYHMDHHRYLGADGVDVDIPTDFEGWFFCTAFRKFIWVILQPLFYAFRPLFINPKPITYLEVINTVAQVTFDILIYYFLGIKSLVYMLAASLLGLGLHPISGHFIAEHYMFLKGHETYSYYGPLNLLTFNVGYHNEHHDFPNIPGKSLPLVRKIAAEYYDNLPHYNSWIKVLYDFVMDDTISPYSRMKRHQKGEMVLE

[4] = system: genes which control ceramide synthesis or degradation; test: RT-PCR of genes which control ceramide synthesis or degradation after TNFα; assay type: cell-based
Protocol: Using RT-PCR, mRNA levels of serine palmitoyltransferase subunits (LCB1 and LCB2), acid ceramidase (AC), glucosylceramide synthase (GCS), ceramide kinase (CerK), and ceramide synthase isoforms 1-6 (Cers/Lass 1-6) were evaluated.
The possibility that TNFαα-stimulation of lipolysis can account for the increase in ceramide by stimulating the formation of intracellular palmitoyl-CoA, which could serve as a precursor for ceramide biosynthesis, was considered. […] Instead, it appears that TNFα regulates the expression or activity of enzymes that control intracellular ceramide levels. Using RT-PCR, changes in mRNA levels of genes which control ceramide synthesis or degradation were evaluated. […] The analysis was extended to consider several ceramide synthase (CerS/LASS) isoforms, which selectively catalyze the incorporation of distinct fatty acids into the sphinganine backbone. TNFα-induced an impressive 8 and 5-fold increase in CerS1 and CerS4, respectively. These enzymes preferentially catalyze the production of ceramide species containing the stearate fatty acid.

soleus muscles = test: Isolated soleus muscle strips incubated with free fatty acids; conditions: cycloserine 1 mM or myriocin 10 μM
Sprague-Dawley rats [5] = test: Lipid infusion with hyperinsulinemic euglycemic clamps; assay type: in vivo, rat; conditions: for Glucose, During Clamp / FFA, Before Clamp / FFA, Before Infusion / FFA, During Clamp / Glucose, Before Clamp / Glucose, Before Infusion / Insulin, Before Clamp / Insulin, Before Infusion / Insulin, During Clamp: plasma, mean ± standard error, n=4; for Glucose, During Clamp: 30 minute steady state
Description: The more common mechanism by which insulin resistance likely develops in the obese is through the accumulation of fats in tissues not-suited for lipid storage. Indeed, intramyocellular lipid levels inversely correlate with insulin sensitivity, and are one of the best predictors of insulin resistance in humans. To mimic this condition in rats, a 20% lard oil-heparin infusate was delivered into the bloodstream of Sprague-Dawley rats via jugular catheters. […] To assess muscle insulin sensitivity during the infusion, hyperinsulinemic-euglycemic clamps were performed on conscious, unrestrained rats during the terminal 90 minutes of the protocol. Lard oil infusion decreased insulin-stimulated glucose disposal to 47% of glycerol treated control subjects (FIG. 3C). […] Differences in the glucose infusion rats could not be accounted for by the slight differences in the glucose concentration that was achieved during the clamp nor to differences in steady-state insulin concentrations (Table 3).
Male Sprague-Dawley rats (˜250 grams) were randomly divided into nine different groups. Glycerol, 20% lard oil, or 20% soy oil emulsions were prepared as previously described (Stein 1997) and infused at a constant rate of 5 mL/Kg/hour. To activate lipoprotein lipase, heparin (6 units/hour) was added to the triglyceride emulsions. Lipids were infused in animals treated with control injections (normal saline), myriocin (100 μg/Kg IP) or cycloserine (50 mg/Kg IP). Drugs were given 12 hours prior to lipid infusion and equivalent doses were given intravenously at the time of infusion. […] Following lipid infusion animals were deeply anesthetized with sodium pentobarbital and soleus muscles were rapidly dissected out and rapidly frozen in liquid nitrogen.
Clamps were performed in conscious unrestrained animals using swivels and tethers (Instech, Plymouth Meeting, Pa.) to allow uninterrupted movement of the animal without disruption of infusion lines. Hyperinsulinemia was initiated by intravenous infusion of insulin (10 mU/kg/min at a flow rate of 4 μL/min).

[6] = Intralipid infusion, with or without myriocin or cycloserine
[7] = lard oil infusion, with or without myriocin or cycloserine

C[C@@H]1C[C@H]2[C@@H]3CCC4=CC(=O)C=C[C@]4(C)[C@@]3(F)[C@@H](O)C[C@]2(C)[C@@]1(O)C(=O)CO [Dexamethasone]
increase in fasting blood glucose (Sprague-Dawley rats [1]): 13% | increase in fasting insulin concentrations (Sprague-Dawley rats [1]): 2.8 fold | Glucose, During Clamp (Sprague dawley rats [2]): 131.1 ± 5.1 mg/dL | Insulin, During Clamp (Sprague dawley rats [3]; steady state): 6.7 ± 1.3 ng/mL | FFA (Sprague dawley rats [3]; Before Clamp by layout): 211 ± 38 µM | Glucose, Before Clamp (Sprague dawley rats [3]): 139.0 ± 3.1 mg/dL | Insulin, Before Clamp (Sprague dawley rats [3]): 4.36 ± 2.34 ng/mL

CC1=C(/C=C/C(C)=C/C=C/C(C)=C/C(=O)Nc2ccc(O)cc2)C(C)(C)CCC1 [fenretinide]
inhibition of DES 1 (DES 1): inhibit DES 1

Oc1ccc(C=Cc2cc(O)cc(O)c2)cc1 [resveratrol]
inhibition of DES 1 (DES 1): inhibit DES 1

TNFα
expression of glucosylceramide synthase (mRNA) [4]: markedly reduced expression | expression of serine palmitoyltransferase subunits LCB1 and LCB2 (mRNA) [4]: increased expression | increase in CerS1 (mRNA) [4]: 8 fold | increase in CerS4 (mRNA) [4]: 5 fold

N[C@@H]1CON=C1O [L-cycloserine]
linoleate effects on 2-DOG uptake (soleus muscles; 1 mM linoleate): did not alter linoleate effects | linoleate effects on DAG accumulation (soleus muscles; 1 mM linoleate): did not alter linoleate effects | DAG in palmitate-treated muscles (soleus muscles; 1 mM palmitate): without affecting DAG | palmitate effect on insulin-stimulated 2-deoxyglucose uptake (soleus muscles; 1 mM palmitate): completely negated the antagonistic effects of palmitate | palmitate-induced ceramide accumulation (soleus muscles; 1 mM palmitate): prevented palmitate-induced ceramide accumulation | insulin-stimulated glucose disposal / insulin resistance (Sprague-Dawley rats [5]; [6]): Neither myriocin nor cycloserine prevented | muscle DAG levels (Sprague-Dawley rats [5]; [6]): Neither myriocin nor cycloserine prevented | ceramide in skeletal muscle (Sprague-Dawley rats [5]; [7]): blocked ceramide synthesis | diacylglycerol (DAG) in muscle (Sprague-Dawley rats [5]; [7]): Neither myriocin nor cycloserine reduced DAG | glucose utilization in clamp (Sprague-Dawley rats [5]; lard-infused animals): restored glucose utilization | Glucose, During Clamp (Sprague-Dawley rats [5]; Lipid: Glycerol): 111.0 ± 3.0 mg/dL | Glucose, During Clamp (Sprague-Dawley rats [5]; Lipid: Lard oil (PBS or drug)): 106.6 ± 2.6 mg/dL | Glucose, During Clamp (Sprague-Dawley rats [5]; Lipid: Soy oil (PBS or drug)): 106.2 ± 0.44 mg/dL | FFA, Before Clamp (Sprague-Dawley rats [5]; Lipid: Glycerol): 0.489 ± 0.10 mM | FFA, Before Infusion (Sprague-Dawley rats [5]; Lipid: Glycerol): 0.562 ± 0.10 mM | FFA, During Clamp (Sprague-Dawley rats [5]; Lipid: Glycerol): 0.501 ± 0.11 mM | Glucose, Before Clamp (Sprague-Dawley rats [5]; Lipid: Glycerol): 113.0 ± 3.2 mg/dL | Glucose, Before Infusion (Sprague-Dawley rats [5]; Lipid: Glycerol): 104.0 ± 13.1 mg/dL | Insulin, Before Clamp (Sprague-Dawley rats [5]; Lipid: Glycerol): 9.19 ± 0.20 ng/mL | Insulin, Before Infusion (Sprague-Dawley rats [5]; Lipid: Glycerol): 0.659 ± 0.11 ng/mL | Insulin, During Clamp (Sprague-Dawley rats [5]; Lipid: Glycerol): 12.08 ± 0.03 ng/mL | FFA, Before Clamp (Sprague-Dawley rats [5]; Lipid: Lard oil (PBS or drug)): 1.53 ± 0.19 mM | FFA, Before Infusion (Sprague-Dawley rats [5]; Lipid: Lard oil (PBS or drug)): 0.672 ± 0.14 mM | FFA, During Clamp (Sprague-Dawley rats [5]; Lipid: Lard oil (PBS or drug)): 2.12 ± 0.89 mM | Glucose, Before Clamp (Sprague-Dawley rats [5]; Lipid: Lard oil (PBS or drug)): 101.6 ± 7.1 mg/dL | Glucose, Before Infusion (Sprague-Dawley rats [5]; Lipid: Lard oil (PBS or drug)): 100.6 ± 6.4 mg/dL | Insulin, Before Clamp (Sprague-Dawley rats [5]; Lipid: Lard oil (PBS or drug)): 2.18 ± 0.76 ng/mL | Insulin, Before Infusion (Sprague-Dawley rats [5]; Lipid: Lard oil (PBS or drug)): 0.793 ± 0.15 ng/mL | Insulin, During Clamp (Sprague-Dawley rats [5]; Lipid: Lard oil (PBS or drug)): 16.27 ± 2.69 ng/mL | FFA, Before Clamp (Sprague-Dawley rats [5]; Lipid: Soy oil (PBS or drug)): 1.51 ± 0.23 mM | FFA, Before Infusion (Sprague-Dawley rats [5]; Lipid: Soy oil (PBS or drug)): 1.02 ± 0.32 mM | FFA, During Clamp (Sprague-Dawley rats [5]; Lipid: Soy oil (PBS or drug)): 2.10 ± 0.77 mM | Glucose, Before Clamp (Sprague-Dawley rats [5]; Lipid: Soy oil (PBS or drug)): 124.0 ± 10.8 mg/dL | Glucose, Before Infusion (Sprague-Dawley rats [5]; Lipid: Soy oil (PBS or drug)): 102.3 ± 7.1 mg/dL | Insulin, Before Clamp (Sprague-Dawley rats [5]; Lipid: Soy oil (PBS or drug)): 3.13 ± 1.0 ng/mL | Insulin, Before Infusion (Sprague-Dawley rats [5]; Lipid: Soy oil (PBS or drug)): 1.12 ± 0.17 ng/mL | Insulin, During Clamp (Sprague-Dawley rats [5]; Lipid: Soy oil (PBS or drug)): 14.38 ± 0.67 ng/mL
